Reference: patent publication US20240376068A1, “SIGMA LIGAND COMPOUNDS AND USES THEREOF” (Minerva Neurosciences, Inc., priority 2020, published 2024)
Where two headings read alike, the source gives them in different places.

Assays:
[1] = molecular target: T1, α1a (h) (Homo sapiens (Human), UniProt P35348); experiment: α1A adrenergic antagonist effect assay; format: cell-based; settings: for IC50: antagonist effect, CHO cells; for inhibition at 1 µM: α1A(h) antagonist effect, read-out: % inhibition of control values (1 μM)
T1 sequence (P35348 whole entry): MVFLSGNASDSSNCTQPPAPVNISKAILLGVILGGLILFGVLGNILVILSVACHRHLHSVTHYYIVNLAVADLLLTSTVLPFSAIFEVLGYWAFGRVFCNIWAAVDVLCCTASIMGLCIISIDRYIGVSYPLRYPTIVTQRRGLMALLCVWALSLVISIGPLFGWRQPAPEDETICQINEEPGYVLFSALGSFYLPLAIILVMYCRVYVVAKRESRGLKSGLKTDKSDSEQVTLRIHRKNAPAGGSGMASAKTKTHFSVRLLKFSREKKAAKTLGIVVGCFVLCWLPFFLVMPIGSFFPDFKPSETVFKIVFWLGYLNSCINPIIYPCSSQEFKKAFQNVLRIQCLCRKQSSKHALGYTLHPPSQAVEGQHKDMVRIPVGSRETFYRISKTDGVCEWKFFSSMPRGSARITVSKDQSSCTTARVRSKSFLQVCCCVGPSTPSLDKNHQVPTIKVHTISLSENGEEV
Experimental: Assays for determining the antagonist effect on α1A (h) were performed according to the procedure described in Example 21, and the results are represented in Table E below. […] No antagonist effect is observed for the other compounds.

[2] = molecular target: T2, α1b (h) (Homo sapiens (Human), UniProt P35368); experiment: α1B adrenergic antagonist effect assay; format: cell-based; settings: CHO cells
T2 sequence (P35368 whole entry): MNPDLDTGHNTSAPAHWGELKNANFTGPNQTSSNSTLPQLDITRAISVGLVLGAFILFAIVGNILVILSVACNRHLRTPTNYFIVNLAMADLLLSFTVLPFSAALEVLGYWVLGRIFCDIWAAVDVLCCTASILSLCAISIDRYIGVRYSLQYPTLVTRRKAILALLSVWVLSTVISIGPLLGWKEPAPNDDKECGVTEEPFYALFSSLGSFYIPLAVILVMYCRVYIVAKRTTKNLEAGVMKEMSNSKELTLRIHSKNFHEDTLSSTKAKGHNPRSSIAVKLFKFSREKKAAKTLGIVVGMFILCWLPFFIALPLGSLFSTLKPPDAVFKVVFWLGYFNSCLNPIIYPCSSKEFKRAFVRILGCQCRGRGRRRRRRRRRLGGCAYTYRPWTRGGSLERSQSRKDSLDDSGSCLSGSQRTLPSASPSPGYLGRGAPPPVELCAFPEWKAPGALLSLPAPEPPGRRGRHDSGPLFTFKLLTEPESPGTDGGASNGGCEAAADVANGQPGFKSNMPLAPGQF

[3] = molecular target: T1, α1a (h); experiment: α1A adrenergic agonist effect assay; format: cell-based; settings: for IC50: agonist effect, CHO cells; for activation at 1 µM: α1A(h) agonist effect, read-out: % stimulation relative to control (1 μM)
Experimental: Assays for determining the agonist effect on α1A (h) were performed according to the procedure described in Example 21, and the results are represented in Table D below.

[4] = test system: Vero-E6 cell line; experiment: Toxicity evaluation on Vero-E6 cell line; format: cell-based; settings: Vero E6, 50 μM to 0.37 μM, 72 h post treatment
Experimental: Day 1: Cell were seeded in 96 wells plate, Vero E6, P40, 10000 cells/well. Growth conditions included medium DMEM high glucose.
Day 2: Compounds were diluted in a mix of 50% DMSO and 50% growth medium to. 10 mM concentration was used for PB28 (10 mg vial from Tocris, 1-Cyclohexyl-4-(3-(5-methoxy-1,2,3,4-tetrahydronaphthalen-1-yl)-n-propyl)piperazine dihydrochloride, see Gordon et al. Nature 2020, 583, […]). Other compounds were prepared at 2 mM concentration stock solution. Cells were treated from 50 μM to 0.37 μM by serial dilution two-fold dilution in triplicate. Controls were designed to include the same concentration of DMSO for each tested products.
Day 5: For a 72 h post treatment, cells were fixed with formalin and stained with Hoetsch33342. Cells were imaged using a Cell Insight CX7 high content screening microscope. Number of cells and nuclear parameters were assessed using an internal cytotoxicity testing protocol.

[5] = molecular target: hERG (Homo sapiens (Human), UniProt Q12809); experiment: hERG inhibition assay
Chain of hERG (Q12809 whole entry): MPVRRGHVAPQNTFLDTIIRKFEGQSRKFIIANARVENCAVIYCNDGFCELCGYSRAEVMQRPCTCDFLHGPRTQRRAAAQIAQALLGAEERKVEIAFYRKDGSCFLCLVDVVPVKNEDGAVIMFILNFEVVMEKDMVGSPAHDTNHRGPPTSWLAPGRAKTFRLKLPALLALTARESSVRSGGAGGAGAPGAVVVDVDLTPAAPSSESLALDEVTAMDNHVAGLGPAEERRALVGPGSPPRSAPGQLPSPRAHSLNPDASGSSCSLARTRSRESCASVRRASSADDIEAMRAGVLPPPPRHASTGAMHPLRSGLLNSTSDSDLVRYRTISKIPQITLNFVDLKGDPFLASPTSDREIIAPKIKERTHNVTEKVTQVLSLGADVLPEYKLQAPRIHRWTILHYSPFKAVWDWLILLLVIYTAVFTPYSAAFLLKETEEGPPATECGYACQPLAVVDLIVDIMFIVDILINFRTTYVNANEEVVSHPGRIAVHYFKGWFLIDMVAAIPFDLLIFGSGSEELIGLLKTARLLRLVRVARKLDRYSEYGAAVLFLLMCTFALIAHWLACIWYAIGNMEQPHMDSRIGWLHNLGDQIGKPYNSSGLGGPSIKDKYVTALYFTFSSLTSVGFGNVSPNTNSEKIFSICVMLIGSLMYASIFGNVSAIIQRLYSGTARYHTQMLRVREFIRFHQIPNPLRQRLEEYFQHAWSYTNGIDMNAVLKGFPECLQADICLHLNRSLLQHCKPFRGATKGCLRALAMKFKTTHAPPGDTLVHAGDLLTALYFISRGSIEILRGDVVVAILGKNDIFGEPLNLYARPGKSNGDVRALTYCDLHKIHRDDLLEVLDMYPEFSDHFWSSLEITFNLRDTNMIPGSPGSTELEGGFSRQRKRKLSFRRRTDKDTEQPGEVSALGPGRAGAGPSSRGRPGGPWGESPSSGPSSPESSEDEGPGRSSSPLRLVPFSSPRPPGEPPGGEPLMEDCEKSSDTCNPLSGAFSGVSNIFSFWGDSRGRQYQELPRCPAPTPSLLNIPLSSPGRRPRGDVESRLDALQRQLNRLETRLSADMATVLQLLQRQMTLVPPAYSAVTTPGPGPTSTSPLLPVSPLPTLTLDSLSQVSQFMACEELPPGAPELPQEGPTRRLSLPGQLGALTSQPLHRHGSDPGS

[6] = molecular target: Sigma 2 (h) (Homo sapiens (Human), UniProt Q5BJF2); experiment: Sigma-2 binding assay
Chain of Sigma 2 (h) (Q5BJF2 whole entry): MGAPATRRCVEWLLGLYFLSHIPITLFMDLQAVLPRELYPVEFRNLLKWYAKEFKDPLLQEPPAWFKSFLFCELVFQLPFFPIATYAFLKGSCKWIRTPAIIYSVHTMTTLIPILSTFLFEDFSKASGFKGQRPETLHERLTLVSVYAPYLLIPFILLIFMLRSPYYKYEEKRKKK
Experimental: (§1) Assays for determining Sigma-1 and Sigma-2 binding values were performed according to Ganapathy, M. E. et al. (1999), J. Pharmacol. Exp. Ther., 289:251-260.

[7] = molecular target: T2, α1b (h); experiment: α1B adrenergic agonist effect assay; format: cell-based; settings: CHO cells
[8] = molecular target: T3, α1d (h) (Homo sapiens (Human), UniProt P25100); experiment: α1D adrenergic agonist effect assay; format: cell-based; settings: CHO cells
T3 sequence (P25100 whole entry): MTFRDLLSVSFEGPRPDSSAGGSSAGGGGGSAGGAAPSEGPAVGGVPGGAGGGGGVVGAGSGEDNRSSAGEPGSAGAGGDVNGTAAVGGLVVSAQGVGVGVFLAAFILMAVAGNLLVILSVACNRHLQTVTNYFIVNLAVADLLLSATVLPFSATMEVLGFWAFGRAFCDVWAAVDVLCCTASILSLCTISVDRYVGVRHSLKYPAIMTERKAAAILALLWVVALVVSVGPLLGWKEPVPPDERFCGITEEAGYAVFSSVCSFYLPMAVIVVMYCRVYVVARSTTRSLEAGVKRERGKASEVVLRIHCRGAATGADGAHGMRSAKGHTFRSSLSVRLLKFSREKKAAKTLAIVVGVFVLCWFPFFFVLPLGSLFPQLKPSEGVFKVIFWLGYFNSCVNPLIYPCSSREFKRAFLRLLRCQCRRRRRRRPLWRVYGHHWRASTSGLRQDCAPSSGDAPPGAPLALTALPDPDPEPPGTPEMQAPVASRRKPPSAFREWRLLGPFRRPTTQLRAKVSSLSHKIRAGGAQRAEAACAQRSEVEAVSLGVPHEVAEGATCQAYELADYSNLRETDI

[9] = molecular target: 5-HT2A (h) (Homo sapiens (Human), UniProt P28223); experiment: 5-HT2A binding assay; settings: antagonist radioligand, HEK-293 cells
Chain of 5-HT2A (h) (P28223 whole entry): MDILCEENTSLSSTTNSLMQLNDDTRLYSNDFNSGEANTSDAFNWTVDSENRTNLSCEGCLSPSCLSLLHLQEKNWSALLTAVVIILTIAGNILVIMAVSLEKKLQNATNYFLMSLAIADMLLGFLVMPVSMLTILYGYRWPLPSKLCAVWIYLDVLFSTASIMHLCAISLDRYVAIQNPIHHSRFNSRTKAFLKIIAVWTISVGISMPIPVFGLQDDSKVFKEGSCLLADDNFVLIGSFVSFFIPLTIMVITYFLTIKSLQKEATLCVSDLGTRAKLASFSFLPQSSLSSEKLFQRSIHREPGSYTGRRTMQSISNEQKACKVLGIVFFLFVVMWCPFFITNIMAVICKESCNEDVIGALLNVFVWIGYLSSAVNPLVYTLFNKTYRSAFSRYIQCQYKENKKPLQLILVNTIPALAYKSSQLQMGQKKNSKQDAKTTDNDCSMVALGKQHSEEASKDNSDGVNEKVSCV
Experimental: Assays for determining 5-HT2A binding values were performed according to: Bonhaus, D. W. et al. (1995), Brit. J. Pharmacol., 115:622-628; Schwinn, D. A. et al. (1995), J. Pharmacol. Exp. Ther., 272:134-142; and Vicentic, A. et al. (2002), J. Pharmacol. Exp. Ther., 302:58-65; Bylund D B et al. (1994), Pharmacol. Rev. 46:121-136. Each of which is incorporated by reference in its entirety.

[10] = molecular target: T3, α1d (h); experiment: α1D adrenergic antagonist effect assay; format: cell-based; settings: CHO cells
[11] = molecular target: sigma 1 (h) (Homo sapiens (Human), UniProt Q99720); experiment: Sigma-1 binding assay
Chain of sigma 1 (h) (Q99720 whole entry): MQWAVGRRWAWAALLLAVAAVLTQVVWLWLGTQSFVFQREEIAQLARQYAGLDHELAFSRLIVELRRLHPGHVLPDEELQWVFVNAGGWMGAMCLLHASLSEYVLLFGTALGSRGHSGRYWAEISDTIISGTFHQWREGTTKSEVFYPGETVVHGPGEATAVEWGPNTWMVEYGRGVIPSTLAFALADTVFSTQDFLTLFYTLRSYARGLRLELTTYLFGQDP
Experimental: as §1

[12] = molecular target: dopamine D2S receptor (Homo sapiens (Human), UniProt P14416); experiment: Dopamine D2S receptor binding assay (Eurofins Cerep item 1322); settings: [3H]7-OH-DPAT, read-out: % inhibition of control specific binding (1 μM)
Chain of dopamine D2S receptor (P14416 other isoform, or with tags, fused parts or gaps): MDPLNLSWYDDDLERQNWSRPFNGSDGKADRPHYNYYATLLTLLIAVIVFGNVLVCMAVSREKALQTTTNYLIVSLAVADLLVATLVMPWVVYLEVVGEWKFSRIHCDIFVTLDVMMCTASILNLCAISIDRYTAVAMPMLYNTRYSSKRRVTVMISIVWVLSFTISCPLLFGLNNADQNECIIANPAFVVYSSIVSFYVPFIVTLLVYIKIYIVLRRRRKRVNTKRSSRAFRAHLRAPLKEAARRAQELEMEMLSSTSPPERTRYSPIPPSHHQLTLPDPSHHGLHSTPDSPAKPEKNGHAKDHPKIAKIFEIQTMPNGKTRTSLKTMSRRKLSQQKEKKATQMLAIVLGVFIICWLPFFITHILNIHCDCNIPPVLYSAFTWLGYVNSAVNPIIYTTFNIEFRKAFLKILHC
Experimental: Assays for determining dopamine D2S receptor binding values were performed according to Eurofins Cerep protocol item 1322 and the results are represented in Table C below. The parameters used for the assay are described below. […] Common antipsychotics, in contrast, block dopamine receptors (Keefe, et al., J Clin Psychiatry. 2018; 79 (3): 17m11753).

[13] = molecular target: 5HT2A (Homo sapiens (Human), UniProt P28223); experiment: 5HT2A agonist effect assay; format: cell-based; settings: for activation at 0.1 µM: 100 nM, read-out: % stimulation relative to control (100 nM); for activation at 1 µM: read-out: % stimulation relative to control (1 μM)
Experimental: Assays for determining the agonist effect on 5HT2A were performed according to the procedure described in Example 21, and the results are represented in Table F below. The compounds in Table F have no agonist effect on 5HT2A at 1 μM and 100 nM.

[14] = [3H]DTG (+1 μM (+)pentazocine), Jurkat cells, read-out: Sigma-2 Ki
[15] = [3H](+)pentazocine, Jurkat cells, read-out: Sigma-1 Ki

Row | Structure (SMILES) | IC50 [1] [nM] | IC50 [2] [nM] | IC50 [3] [nM] | cytotoxicity (cell number) [4] | IC50 [5] [nM] | Ki [6, 14] [nM] | IC50 [7] [nM] | IC50 [8] [nM] | IC50 [9] [nM] | IC50 [10] [nM] | Ki [11, 15] [nM] | Ki [6] [nM] | Ki [11] [nM] | inhibition at 1 µM [1] [%] | activation at 1 µM [3] [%] | inhibition at 1 µM [12] [%] | activation at 0.1 µM [13] [%] | activation at 1 µM [13] [%]
1 | CCCN1CCN(c2ccc3c(c2)CN(C(=O)OCc2ccccc2)CC3(C)C)CC1 [Compound 2, benzyl 4,4-dimethyl-7-(4-propylpiperazin-1-yl)-3,4-dihydroisoquinoline-2(1H)-carboxylate] | > 1000 | > 1000 | > 1000 | not cytotoxic | > 3000 | 5 to 50 | > 1000 | > 1000 | > 1000 | > 1000 | 5 to 50 |  |  |  |  |  |  | 
2 | CC1(C)CCN(C2CCCC2)Cc2cc(-c3ccc(C(F)(F)F)cc3)ccc21 [Compound 10, 2-cyclopentyl-5,5-dimethyl-8-(4-(trifluoromethyl)phenyl)-2,3,4,5-tetrahydro-1H-benzo[c]azepine] | > 1000 | > 1000 | > 1000 |  | > 3000 |  | > 1000 | > 1000 | > 1000 | > 1000 |  | 5 to 50 | > 500 |  |  |  |  | 
3 | CC(C)OC(=O)N1CCC(C)(C)c2ccc(N3CCN(C4CCCC4)CC3)cc2C1 [Compound 79, isopropyl 8-(4-cyclopentylpiperazin-1-yl)-5,5-dimethyl-1,3,4,5-tetrahydro-2H-benzo[c]azepine-2-carboxylate] |  |  |  |  | > 3000 | 5 to 50 |  |  |  |  | 0.1 to 5 |  |  | 13 | 0 | 19 | 1 | 0
4 | CC1(C)CCN(S(=O)(=O)c2cccc(Cl)c2)Cc2cc(N3CCC(N4CCOCC4)CC3)ccc21 [Compound 80, 4-(1-(2-((3-chlorophenyl)sulfonyl)-5,5-dimethyl-2,3,4,5-tetrahydro-1H-benzo[c]azepin-8-yl)piperidin-4-yl)morpholine] |  |  |  |  | > 3000 | 50 to 100 |  |  |  |  | 0.1 to 5 |  |  | 15 | 0 | 4 | 0 | 1
